How the values were obtained:
human platelet PDE3 = molecular target: T1, human platelet PDE3 (Homo sapiens, UniProt Q14432); test: hPDE3 assay ([3H]cAMP scintillation proximity assay); format: biochemical; details: human platelet PDE3, [3H]cAMP SPA, 30 min at room temperature
T1 construct: Human platelet PDE3 (partially purified from human platelets); from tissue; host or cells: human platelets

GTL16 cells = test: GTL16 cell viability assay (CellTiter Glo); format: cell-based; details: Homo sapiens, GTL 16, GTL16 gastric cancer cells, 24 hours, triplicates, read-out: GTL-16 Proliferation IC50
Protocol: GTL16 cell line is derived from a gastric cancer patient. GTL16 expresses high level of c-Met receptor tyrosine kinase due to the gene amplification.
GTL16 cells were seeded in DMEM medium with 10% FBS and 1% Pene. & Strep. at 5000 cells/well/90 μL in 96 well plate and incubated overnight for attachment at 37° C. in 5% CO2 incubator. 10-fold serials dilutions of compounds were added to the cell as 10 μL/well. The final assay volume was 100 μl/well. The assay plates were incubated at 37° C. in 5% CO2 incubator for 24 hours. […] Briefly, the plates were cooled at room temperature for 10 mins and 100 μl of CellTiter Glo reagent was added into each well. Plates were shaken for 10 mins. The chemiluminescent light unit was read in Envision from Perkin Elmer. All the tests were run at triplicates. The IC50 was calculated using Spotfire software.

[1] = molecular target: c-MET receptor tyrosine kinase, GST-c-MET(969-1390) (Homo sapiens, UniProt P08581); test: EPK c-MET profiling assay (LanthaScreen TR-FRET kinase assay); format: biochemical; details: 2 μM ATP, 0.3 nM enzyme, 60 minutes at room temperature; end point measurement, repeats can be about two times higher or lower; read-out: c-Met Biochem IC50
Chain of c-MET receptor tyrosine kinase, GST-c-MET(969-1390) (P08581 969-1390): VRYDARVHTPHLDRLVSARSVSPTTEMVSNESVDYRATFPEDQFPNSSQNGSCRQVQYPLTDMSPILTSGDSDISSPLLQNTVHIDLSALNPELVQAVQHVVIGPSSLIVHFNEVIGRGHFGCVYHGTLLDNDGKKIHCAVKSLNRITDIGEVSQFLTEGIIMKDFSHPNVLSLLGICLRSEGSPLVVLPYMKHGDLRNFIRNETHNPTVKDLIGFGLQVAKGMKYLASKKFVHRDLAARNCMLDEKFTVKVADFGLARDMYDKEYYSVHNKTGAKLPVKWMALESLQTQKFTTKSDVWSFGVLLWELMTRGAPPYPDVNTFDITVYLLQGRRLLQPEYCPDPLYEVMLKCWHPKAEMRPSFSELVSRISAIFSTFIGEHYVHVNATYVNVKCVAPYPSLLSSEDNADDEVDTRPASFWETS
Protocol: The exemplified compounds of the present invention were assayed in an antibody based kinase phosphorylation assay as follows.
EPK c-MET Profiling Assay:
The EPK kinase assay for c-MET receptor tyrosine kinase was developed, using the purified recombinant GST-fusion protein, containing the cytoplasmic domain of the enzyme. GST-c-MET(969-1390) was purified by affinity chromatography.
The kinase assay is based on the LanthaScreen™ technology. LanthaScreen™ is the detection of Time-Resolved Fluorescence Resonance Energy Transfer (TR-FRET) using lanthanide chelates to measure interactions between various binding partners. In a TR-FRET kinase assay, a long-lifetime lanthanide donor species is conjugated to an antibody that specifically binds to a phosphorylated product of a kinase reaction that is labeled with a suitable acceptor fluorophore. This antibody-mediated interaction brings the lanthanide donor and the acceptor into proximity such that resonance energy transfer can take place, resulting in a detectable increase in the FRET signal.
The kinase reactions were performed in 384 well microtiter plates in a total reaction volume of 10.05 μL. The assay plates were prepared with 0.05 μL per well of test compound in the appropriate test concentration, as described under “preparation of compound dilutions”. The reactions were started by combining 5 μL of ATP solution with 5 μL of enzyme-substrate mix (consisting of kinase and substrate). The final concentrations in the kinase reactions were 25 mM Tris/HCl, 1 mM DTT, 0.025% Tween20, 10 μM sodium orthovanadate, 0.25% BSA, 0.5% DMSO, 10 mM MgCl2, 3 mM MnCl2, 2 μM ATP, 50 nM Fluorescein-PolyEAY, and 0.3 nM enzyme. The reactions were incubated for 60 minutes at room temperature and stopped by adding 5 μL of stop buffer (50 mM EDTA, 0.04% NP40, 20 mM Tris/HCl). Subsequently 5 μL of detection mix (50 mM Tris/HCl, 2 mM DTT, 0.05% Tween20, 20 μM sodium orthovanadate, 1% BSA, 1 nM Tb-PY20 antibody) were added to the stopped reactions. After 45 minutes incubation in dark at room temperature, the plates were measured in a Perkinelmer Envision fluorescence reader. The effect of compound on the enzymatic activity was in all assays obtained from the linear progress curves and normally determined from one reading (end point measurement).
These endpoint results should therefore only be seen as an indicator for the activity range, since repeated measurements can result in about two times higher or lower values.

T1 sequence (Q14432 whole entry): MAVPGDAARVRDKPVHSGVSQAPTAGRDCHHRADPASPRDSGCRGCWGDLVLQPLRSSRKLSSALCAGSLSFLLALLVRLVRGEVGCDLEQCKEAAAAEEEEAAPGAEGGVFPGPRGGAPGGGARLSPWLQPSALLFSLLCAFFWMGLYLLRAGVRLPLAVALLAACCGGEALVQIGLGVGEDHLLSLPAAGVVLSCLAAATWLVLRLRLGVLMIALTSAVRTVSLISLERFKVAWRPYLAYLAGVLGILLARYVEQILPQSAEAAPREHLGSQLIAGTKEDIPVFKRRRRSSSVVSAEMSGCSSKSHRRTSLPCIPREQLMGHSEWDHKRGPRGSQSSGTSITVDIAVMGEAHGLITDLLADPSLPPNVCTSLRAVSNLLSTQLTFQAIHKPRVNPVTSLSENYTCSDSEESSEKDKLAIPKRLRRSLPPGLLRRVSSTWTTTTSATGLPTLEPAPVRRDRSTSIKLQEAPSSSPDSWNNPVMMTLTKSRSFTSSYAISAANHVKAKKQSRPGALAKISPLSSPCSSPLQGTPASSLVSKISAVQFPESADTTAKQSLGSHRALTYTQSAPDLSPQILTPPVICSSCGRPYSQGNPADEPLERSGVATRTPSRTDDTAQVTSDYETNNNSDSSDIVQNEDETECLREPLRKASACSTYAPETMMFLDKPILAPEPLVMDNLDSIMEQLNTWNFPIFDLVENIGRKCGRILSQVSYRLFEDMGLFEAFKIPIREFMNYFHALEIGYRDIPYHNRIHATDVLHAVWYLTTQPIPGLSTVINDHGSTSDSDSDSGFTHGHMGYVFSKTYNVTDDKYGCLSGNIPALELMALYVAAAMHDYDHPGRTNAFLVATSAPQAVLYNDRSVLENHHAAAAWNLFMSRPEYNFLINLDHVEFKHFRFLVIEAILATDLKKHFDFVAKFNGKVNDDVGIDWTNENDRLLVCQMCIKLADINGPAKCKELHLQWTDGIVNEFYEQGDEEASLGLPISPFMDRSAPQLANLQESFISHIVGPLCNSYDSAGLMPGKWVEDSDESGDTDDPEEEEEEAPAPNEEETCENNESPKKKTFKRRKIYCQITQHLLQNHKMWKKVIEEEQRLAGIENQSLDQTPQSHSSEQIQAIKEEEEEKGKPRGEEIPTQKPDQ

SMILES	IC50 (human platelet PDE3) [µM]	IC50 [1] [nM]	IC50 (GTL16 cells) [nM]
C/C(=N\O)c1ccc2nnc([C@H](C)c3c(F)cc4ncc(C(C)(C)O)cc4c3F)n2n1 [24-(R)]	6	146	126
C/C(=N\O)c1ccc2nnc([C@@H](C)c3c(F)cc4ncc(C(C)(C)O)cc4c3F)n2n1 [24-(S)]	8	5	80
C/C(=N\O)c1ccc2nnc(Sc3ccc4ncc(N5CCOCC5)cc4c3)n2n1 [Example 10, (E)-1-[3-(3-Morpholin-4-yl-quinolin-6-ylsulfanyl)-[1,2,4]triazolo[4,3-b]pyridazin-6-yl]-ethanone oxime]	–	4	1
C/C(=N\O)c1ccc2nnc(Cc3c(F)cc4ncc(N5CCOCC5)cc4c3F)n2n1 [Example 11, (E)-1-[3-(5,7-Difluoro-3-morpholin-4-yl-quinolin-6-ylmethyl)-[1,2,4]triazolo[4,3-b]pyridazin-6-yl]-ethanone oxime]	> 30	1	6
C/C(=N\O)c1ccc2nnc(Cc3ccc4ncc(CN5CCN(C)CC5)cc4c3)n2n1 [Example 16, (E)-1-(3-((3-((4-Methylpiperazin-1-yl)methyl)quinolin-6-yl)methyl)-[1,2,4]triazolo[4,3-b]pyridazin-6-yl)ethanone oxime]	–	25	491
C/C(=N\O)c1ccc2nnc(Cc3c(F)cc4ncc(CN5CCOCC5)cc4c3F)n2n1 [Example 17, (E)-1-(3-((5,7-Difluoro-3-(morpholin-4-yl-methyl)quinolin-6-yl)methyl)-[1,2,4]triazolo[4,3-b]pyridazin-6-yl)ethanone oxime]	–	3	10
C/C(=N\O)c1ccc2nnc(Cc3ccc4ncc(CN5CCCCC5)cc4c3)n2n1 [Example 18, (E)-1-(3-((3-(Piperidin-1-ylmethyl)quinolin-6-yl)methyl)-[1,2,4]triazolo[4,3-b]pyridazin-6-yl)ethanone oxime]	–	207	317
C/C(=N\O)c1ccc2nnc(Cc3ccc4ncc(N5C[C@@H]6C[C@H]5CN6C)cc4c3)n2n1 [Example 19, (E)-1-(3-((3-((1S,4S)-5-Methyl-2,5-diazabicyclo[2.2.1]heptan-2-yl)quinolin-6-yl)methyl)-[1,2,4]triazolo[4,3-b]pyridazin-6-yl)ethanone oxime]	–	5	12
C/C(=N\O)c1ccc2nnc(Cc3ccc4ncc(N5CCC(O)CC5)cc4c3)n2n1 [Example 20, (E)-1-(3-((3-(4-Hydroxypiperidin-1-yl)quinolin-6-yl)methyl)-[1,2,4]triazolo[4,3-b]pyridazin-6-yl)ethanone oxime]	–	4	17
C/C(=N\O)c1ccc2nnc(Cc3c(F)cc4ncc(-c5c(C)noc5C)cc4c3F)n2n1 [Example 23, (E)-1-(3-((3-(3,5-Dimethylisoxazol-4-yl)-5,7-difluoroquinolin-6-yl)methyl)-[1,2,4]triazolo[4,3-b]pyridazin-6-yl)ethanone oxime]	–	8	11
C/C(=N\O)c1ccc2nnc(C3(c4ccc5ncc(N6CCN(C)CC6)cc5c4)CC3)n2n1 [Example 27]	–	31	240
C/C(=N\O)c1ccc2nnc(Cc3ccc4ncc(NC5CCOCC5)cc4c3)n2n1 [Example 34, (E)-1-{3-[3-(Tetrahydro-pyran-4-ylamino)-quinolin-6-ylmethyl]-[1,2,4]triazolo[4,3-b]pyridazin-6-yl}-ethanone oxime]	–	2	10

Further lines, with some results ahead:

IC50 (human platelet PDE3) [µM]	IC50 [1] [nM]	SMILES	IC50 (GTL16 cells) [nM]
–	5	C/C(=N\O)c1ccc2nnc(C(C)c3ccc4ncc(-c5cnn(C)c5)cc4c3)n2n1 (centres unmarked) [Example 1, (E)-1-(3-{1-[3-(1-Methyl-1H-pyrazol-4-yl)quinolin-6-yl]-ethyl}-[1,2,4]triazolo[4,3-b]pyridazin-6-yl)-ethanone oxime]	9
–	6	CCO/N=C(\C)c1ccc2nnc(C(C)c3ccc4ncc(-c5cnn(C)c5)cc4c3)n2n1 (centres unmarked) [Example 2, (E)-1-(3-{1-[3-(1-Methyl-1H-pyrazol-4-yl)quinolin-6-yl]-ethyl}-[1,2,4]triazolo[4,3-b]pyridazin-6-yl)-ethanone O-ethyl-oxime]	2
11	26	CO/N=C(\C)c1ccc2nnc([C@H](C)c3ccc4ncc(-c5cnn(C)c5)cc4c3)n2n1 [Example 3-(R)]	27
2	5	CO/N=C(\C)c1ccc2nnc([C@@H](C)c3ccc4ncc(-c5cnn(C)c5)cc4c3)n2n1 [Example 3-(S)]	1
–	25	C/C(=N\OCC1CC1)c1ccc2nnc(C(C)c3ccc4ncc(-c5cnn(C)c5)cc4c3)n2n1 (centres unmarked) [Example 4, (E)-1-(3-{1-[3-(1-Methyl-1H-pyrazol-4-yl)quinolin-6-yl]-ethyl}-[1,2,4]triazolo[4,3-b]pyridazin-6-yl)-ethanone O-cyclopropylmethyl-oxime]	–
10	144	C/C(=N\OCC1CC1)c1ccc2nnc([C@H](C)c3ccc4ncc(-c5cnn(C)c5)cc4c3)n2n1 [Example 4-(R)]	99
1.2	23	C/C(=N\OCC1CC1)c1ccc2nnc([C@@H](C)c3ccc4ncc(-c5cnn(C)c5)cc4c3)n2n1 [Example 4-(S)]	9
–	5	C/C(=N\N)c1ccc2nnc(C(C)c3ccc4ncc(-c5cnn(C)c5)cc4c3)n2n1 (centres unmarked) [Example 5]	1
–	4	CO/N=C(\C)c1ccc2nnc(Cc3ccc4ncc(-c5cnn(C)c5)cc4c3)n2n1 [Example 6, (E)-1-{3-[3-(1-Methyl-1H-pyrazol-4-yl)quinolin-6-ylmethyl]-[1,2,4]triazolo[4,3-b]pyridazin-6-yl}-ethanone O-methyl-oxime]	0.5
–	11	C/C(=N\OCC1CC1)c1ccc2nnc(Cc3ccc4ncc(-c5cnn(C)c5)cc4c3)n2n1 [Example 7, (E)-1-{3-[3-(1-Methyl-1H-pyrazol-4-yl)quinolin-6-ylmethyl]-[1,2,4]triazolo[4,3-b]pyridazin-6-yl}-ethanone O-cyclopropylmethyl-oxime]	8
–	3	CCO/N=C(\C)c1ccc2nnc(Cc3ccc4ncc(-c5cnn(C)c5)cc4c3)n2n1 [Example 8, (E)-1-{3-[3-(1-Methyl-1H-pyrazol-4-yl)quinolin-6-ylmethyl]-[1,2,4]triazolo[4,3-b]pyridazin-6-yl}-ethanone O-ethyl-oxime]	0.3
–	86	C/C(=N\OCC1CC1)c1ccc2nnc(C(C)c3ccc4ncc(CN5CCOCC5)cc4c3)n2n1 (centres unmarked) [Example 9, (E)-1-{3-[1-(3-Morpholin-4-ylmethyl-quinolin-6-yl)-ethyl]-[1,2,4]triazolo[4,3-b]pyridazin-6-yl}-ethanone O-cyclopropylmethyl-oxime]	311
9	0.5	C/C(=N\O)c1ccc2nnc(Cc3ccc4ncc(-c5cnn(C)c5)cc4c3)n2n1 [Example 12, (E)-1-(3-((3-(1-Methyl-1H-pyrazol-4-yl)quinolin-6-yl)methyl)-[1,2,4]triazolo[4,3-b]pyridazin-6-yl)ethanone oxime]	1
–	0.9	C/C(=N\O)c1ccc2nnc(Sc3ccc4ncc(N5CCC(N(C)C)C5)cc4c3)n2n1 (centres unmarked) [Example 33, (E)-1-(3-((3-(3-(dimethylamino)pyrrolidin-1-yl)quinolin-6-yl)sulfanyl)-[1,2,4]triazolo[4,3-b]pyridazin-6-yl)ethanone oxime]	1

— patent US20130324526A1, “[1,2,4] TRIAZOLO [4,3-B] PYRIDAZINE COMPOUNDS AS INHIBITORS OF THE C-MET TYROSINE KINASE” (NOVARTIS AG, priority 2011, published 2013)
